Data as given in patent publication US20090170865A1, “Treatment of Prostate Cancer with Angiogenesis-Targeting Quinazoline-Based Anti-Cancer Compounds” (University of Kentucky Research Foundation, priority 2007, published 2009).
Where two headings read alike, the source gives them in different places.

Key:
PC-3 cells [1] = conditions: for apoptosis induction: 10 μmol/L, 24 h
Procedure: (§1) a) Hoechst Staining. Cells were plated in 6-well culture dishes at 5×10^4 cells per/well and at subconfluency were treated with increasing concentrations of DZ-1-23, -38, -40, -42, and -50 (0-25 μM). After 24 and 48 hrs of treatment, cells were fixed with 4% (w/v) paraformaldehyde (Sigma) and stained with 10 μg/mL Hoechst 33342 (B2261; Sigma) in the presence of 0.1% Triton X-100 (Sigma) as previously described. Cells were visualized using a Zeiss Axiovert S100 fluorescent microscope (Thornwood, N.Y.) with a UV filter (365 nm) and cells with condensed chromatin were designated apoptotic (100× magnification). The apoptotic index was determined by counting three random fields in duplicate wells per group. Each experiment was performed twice. b) MTT assay: Subconfluent cultures of cells were exposed to increasing concentrations of DZ-1-23, -38, -40, -42, and -50 (0-25 μM). After treatment the medium was replaced with 250 μl of MTT (Sigma) (1 mg/ml) and incubated at 37° C. to form blue crystals. After 2 hrs the MTT was removed and replaced with DMSO (250 μl) and incubated overnight at 37° C. The DMSO-crystal solution's absorbance was read at 540 nm in a microplate reader (Bio-Tek Instruments, Winooski, VM). Numerical data represent the average of three independent experiments performed in triplicate. Cell Migration Assay. (Wounding assay) Confluent monolayers of PC-3, DU-145, HUVEC, or HMVEC-L cells were wounded with a toothpick. After wounding, medium was changed and DZ-3 or DZ-50 (5 μM). After incubation for 12 or 24 hrs, wounding areas were examined under light microscopy (Axiovert 10, Zeiss). Cells that had migrated to the wounded areas were counted under a microscope for quantification of cell migration. Migration was calculated as the average number of cells observed in five random high power (400×) wounded fields/per well in duplicate wells. Tube Formation Assay: In vitro Angiogenesis Evaluation: In vitro formation of tubular structures was studied on extracellular matrix using an angiogenesis kit as described by the manufacturer (Chemicon International, Inc., Temecula, Calif.). HUVEC or HMVEC-L (10×10^4 cells/well) of 96-well-plates were seeded onto ECMatrigel-coated wells in the presence or absence of DZ-3 or DZ-50 and VEGF. Cells were treated with cytokines as single agents or each in combination (e.g. DZ-50 and VEGF).

HUVEC = experiment: Tube formation assay (in vitro angiogenesis); format: cell-based, human; conditions: for vascular endothelial cell tube formation: 10 μmol/L, Matrigel, 24 hrs
[2] = test system: endothelial and epithelial cell lines; experiment: Cell viability / cell death evaluation (MTT assay); format: cell-based, human
[3] = data not shown
[4] = test system: PC-3 human prostate cancer xenografts; conditions: for CD31+ (vascularity) / Ki67 (proliferation index), % / TUNEL (apoptotic index): PC-3 xenograft
Procedure: (§2) Tumorigenicity Studies. Human prostate cells (PC-3 and DU-145) suspended in PBS, were inoculated subcutaneously (s.c.) (2.5×10^6 cells/site) in the flank of male nude mice, 4-6 weeks of age. Tumors were measured every 48 hrs with a digital caliber, and tumor volumes were calculated using the formula length×(width)^2/2. When tumors reached ≈50 mm^3 mice were stratified into treatment groups of 6 mice/treatment. DZ-50 was administered at doses of 50, 100, and 200 mg/kg in 0.5% methylcellulose (w/v)+0.1% Tween-80 (v/v) in water, by oral gavage using a 22-gauge, 1.5-inch gavage needle. Animals were sacrificed after 2 wks of treatment unless otherwise indicated. In a separate experiment human prostate cells (PC-3) were inoculated as described above and dosing began (200 mg/kg) concurrently for 2 wks. Upon termination of the experiment, tumors were surgically excised and tissue specimens were fixed in a 10% (v/v) formalin solution (Sigma) and subsequently embedded in Paraplast X-tra paraffin (VWR). Blocks were sectioned (6 μm) on a Finesse Microtome (ThermoShandon, UK).
(§3) Spontaneous Metastasis Assay: Human prostate cells (PC-3) were injected (2×10^6 cells/80 μl of PBS) in the tail vein of male nude mice, 4-6 wks of age; mice were maintained in a pathogen-free environment. At 10 days post-inoculation, 200 mg/kg of DZ-50 was given daily (via oral gavage as described above). After 2 wks of treatment, DZ-50 treated and vehicle control mice were sacrificed and lungs, spleen, kidneys, and prostate organs were excised and subjected to examination for metastatic tumor lesions. Apoptosis Evaluation Apoptotic cells were detected using the ApopTago Peroxidase In Situ Apoptosis Kit (Chemicon, Temecula, Calif.). Briefly, paraffin-embedded sections were treated with Proteinase K (Dako, Carpinteria, Calif.) and were subsequently incubated with terminal deoxynucleotidyl transferase enzyme. Terminal deoxynucleotidyl transferase-mediated deoxyuridine triphosphate nick end labeling (TUNEL)-positive cells were counted in five different fields (400×) and the apoptotic index was determined based on the number of apoptotic cells over the total number of cells. Vascularity Evaluation: CD31 staining was performed for endothelial cells using enzymatic digestion with Proteinase K (Dako). The primary antibody used was the mouse anti-human CD31 specific for endothelial cells from Dako (overnight incubation at 4° C.). CD31-positive endothelial cells were counted in five different fields (400×). Cell Proliferation Cell proliferation index was evaluated on the basis of Ki67 nuclear antigen immunoreactivity. Following antigen retrieval slides were incubated with an antibody directed against the Ki67 nuclear antigen (AMAC, Westbrook, Mass.). Ki67+ cells were counted from five different fields (400×).

[5] = test system: DU-145 human prostate cancer xenografts; conditions: for CD31+ (vascularity) / Ki67 (proliferation index), % / TUNEL (apoptotic index): DU-145 xenograft
Procedure: as §2, §3

[6] = test system: PC-3 cells on HMVEC-L monolayer; conditions: 6 hrs of exposure, non-cytotoxic doses
Procedure: Sterile (12 mm diameter) glass coverslips were coated with Matrigel (Becton Dickson, Franklin Lakes, N.J.) at a dilution of 1:8 and air dried at room temperature (1 hr). Coverslips received approximately 6.25×10^4 HMVEC-L to form a complete monolayer. The cells were allowed to spread on the Matrigel for 24 hrs prior to the experiment. PC-3 cells were resuspended in EGM-2MV (Cambrex) and added to the HMVEC-L monolayer at a concentration of 8×10^3 cells/coverslip. Co-cultures were incubated at 37° C. at 5% CO2 for 3, 6, 9, 12, and 24 hrs. Prior to the addition of prostate epithelial cells, cells were incubated with the lipophilic tracer 1,1′-dioctadecyl-3,3,3′,3′-tetramethylindocarbocyanine perchlorate (DiI) (Invitrogen, Carlsbad, Calif.) for 20 min at 10 μg/ml to stain cell membranes. To label F-actin, PC-3 cells, or co-cultures of PC-3 cells HMVEC-L were fixed for 10 min at room temperature in 2% paraformaldehyde in PBS, and were permeabilized for 5 min with a buffer containing 15 mM Tris, 120 mM NaCl, 2 mM EDTA, 2 mM EGTA, and 0.5% Triton X-100 (pH 7.4). […] Coverslips were mounted with Vectashield (Vector Laboratories, Burlington, Canada) on glass slides and analyzed with confocal microscopy.

[7] = test system: PC-3 cells injected in the tail vein; conditions: 200 mg/kg p.o. from 10 d postinoculation, 21 days of treatment, vs untreated control mice
Procedure: as §3, with “Vascularity Evaluation: CD31 staining was performed for endothelial cells using enzymatic digestion with Proteinase K (Dako). The primary antibody used was the mouse anti-human CD31 specific for endothelial cells from Dako (overnight incubation at 4° C.).” left out, “Following antigen retrieval slides were incubated with an antibody directed against the Ki67 nuclear antigen (AMAC, Westbrook, Mass.).” left out

PC-3 cells [8] = conditions: 6, 9, and 12 h exposure, 5 and 10 μmol/L
Procedure: (§4) Prostate cancer cells PC-3 and DU-145 cells were treated for 3, 6, 9, 12, or 15 hrs with DZ-50 (5 μM) and harvested. 5×10^4 cells were added to each well of a 6-well culture dish coated with either collagen or fibronectin and incubated for 30 min at 37° C. Following incubation cells were fixed and the number of cells/well recorded. Numerical data represent the average of three independent experiments in triplicate.

DU-145 cells [9] = test system: DU-145 cells
Procedure: as §4

[10] = test system: CAM blood vessel development; conditions: 48 hrs, with VEGF or bFGF
Procedure: Fertilized chicken eggs were incubated at 37° C. At E8 a window was created to allow visualization of the egg shell membrane. 6 mm blank paper discs (BD) were placed on the egg shell membrane along with VEGF (100 ng) or bFGF (100 ng) and DZ-50. The windows were sealed with porous adhesive and allowed to incubate 48 hrs. At E10 the adhesive was removed along with the egg shell membrane to expose the CAM and 4% paraformaldehyde was added. Following excision the number of vessels per CAM was quantified by counting under a dissecting microscope.

[11] = test system: HUVEC, HMVEC-L vascular endothelial cells; conditions: non-cytotoxic doses 5 and 10 μM
Procedure: as §1

DU-145 cells [12] = conditions: non-cytotoxic doses 5 and 10 μM
Procedure: as §1

integrin β1 = conditions: 10 μmol/L
Procedure: (§5) FACS—Flow Cytometric Analysis: PC-3 cells were treated with DZ-50 (10 μM) and harvested with 0.5 mM EDTA solution. Prostate cancer epithelial cells were then incubated with hanks balanced salt solution (HBSS) supplemented with 2% BSA and 0.01% sodium azide for 30 min at 4° C. Cells were subsequently fixed in 4% (w/v) formaldehyde, washed, and incubated with the designated integrin antibody followed by FITC-conjugated goat anti-mouse secondary. Analysis was performed on a Partec FlowMax (Partec, Munster, Germany).

[13] = test system: integrins α2, α3, αV, and β3; conditions: PC-3 cells, data not shown
Procedure: as §5

With `COc1cc2nc(N3CCN(S(=O)(=O)c4ccc(-c5ccccc5)cc4)CC3)nc(N)c2cc1OC` [DZ-3] the apoptosis induction (PC-3 cells [1]) was “trigger apoptotic cell death”.
For `COc1cc2nc(N3CCN(S(=O)(=O)c4c(C(C)C)cc(C(C)C)cc4C(C)C)CC3)nc(N)c2cc1OC` [DZ-10, 2-[4-(2,4,6-triisopropylbenzenesulfonyl)-piperazin-1-yl]-6,7-dimethoxyquinazolin-4-yl-amine], the “vascular endothelial cell tube formation” value (HUVEC) was “does not change the ability of HUVEC cells to form multibranched tubular networks” and the “effect on cell viability” value ([2]; negative control compound of the tube formation assay) was “no effect on cell viability”.
In the case of `CC(C)Oc1cc2nc(N3CCN(S(=O)(=O)c4ccc(-c5ccccc5)cc4)CC3)nc(N)c2cc1OC(C)C` [DZ-50], the “gross and histological examination of lung, liver, spleen, and prostate” value ([3]; compared to control animals) is reported as “no apparent changes”, the “animal's behavioral pattern and weight” value [3] is reported as “no change” and the “tube formation in the presence of VEGF” value (HUVEC; 10 μmol/L with VEGF) is reported as “VEGF cannot reverse the antiangiogenic effect”. The “vascular endothelial cell tube formation” value (HUVEC) was “significantly inhibited”, the “prostate tumor development (growth initiation)” value ([4]; PC-3 inoculation with simultaneous treatment, 200 mg/kg p.o., 2 wks) was “dramatically suppressed” and the “CD31+ (vascularity)” value ([4]; 100 mg/kg) was 13.5 ± 1.9. For the same molecule, the “Ki67 (proliferation index), %” value ([4]; 100 mg/kg) was 42.6%, the “TUNEL (apoptotic index)” value ([4]; 100 mg/kg) was 2.0 ± 0.8 and the “CD31+ (vascularity)” value ([4]; 200 mg/kg) was 6.5 ± 0.6. For the same molecule, the “Ki67 (proliferation index), %” value ([4]; 200 mg/kg) was 45.0%, the “TUNEL (apoptotic index)” value ([4]; 200 mg/kg) was 1.4 ± 0.4 and the tumor volume ([4]; PC-3 xenografts, 200 mg/kg p.o., 14 d after palpable tumor formation) was “significant reduction in tumor volume”. For the same molecule, the “CD31+ (vascularity)” value ([5]; 100 mg/kg) was 15.1 ± 0.7, the “Ki67 (proliferation index), %” value ([5]; 100 mg/kg) was 53.9% and the “TUNEL (apoptotic index)” value ([5]; 100 mg/kg) was 3.5 ± 1.0. The “CD31+ (vascularity)” value ([5]; 200 mg/kg) was 10.1 ± 0.4, the “Ki67 (proliferation index), %” value ([5]; 200 mg/kg) was 49.7% and the “TUNEL (apoptotic index)” value ([5]; 200 mg/kg) was 3.4 ± 1.2. The tumor volume ([5]; DU-145 xenografts, 200 mg/kg p.o., 14 d after palpable tumor formation) was “significant reduction in tumor volume”, the “attachment of tumor epithelial cells to an endothelial monolayer” value [6] was “significantly inhibited” and the cell viability/cell death ([2]; PC-3 and HMVEC-L cells, 10M, first 24 hrs of treatment) was “no effect on cell viability/cell death”. For the same molecule, the cell viability ([2]; endothelial and epithelial cell lines, 24 and 48 hrs, 5-25 μmol/L) was “reduced cell viability”, the “number of metastatic foci to the lungs” value [7] was “significant reduction” and the “attachment of PC-3 cells to fibronectin or collagen” value (PC-3 cells [8]) was “reduced the ability of PC-3 cells to attach to either fibronectin or collagen, but this effect was not statistically significant”. The “attachment of DU-145 cells to fibronectin or collagen” value (DU-145 cells [9]) was “neither fibronectin nor collagen, was significantly inhibited”, the “angiogenesis/vascularity (number of blood vessels per CAM)” value [10] was “significant suppression of angiogenesis/vascularity” and the apoptosis induction (PC-3 cells [1]) was “not effective at inducing apoptosis”. The “prostate cancer epithelial cell migration (PC-3)” value (PC-3 cells [1]; non-cytotoxic doses 5 and 10 μM) was “significant inhibition”, the endothelial cell migration [11] was “significant inhibition” and the “prostate cancer epithelial cell migration (DU-145)” value (DU-145 cells [12]) was “significant inhibition”. The “integrin β1 expression intensity” value (integrin β1; DU-145 cells, 12 h) was “significantly smaller shift”, the “integrin β1 surface expression” value (integrin β1; PC-3 cells, 12-24 hrs) was “undetectable” and the “surface expression of integrins α2, α3, αV, and β3” value [13] was “did not effect the surface expression”.
